Source: patent publication US20240262795A1, “PYRAZINE COMPOUNDS AS INHIBITORS OF FLT3” (Biomea Fusion, Inc., priority 2021, published 2024)

How the values were obtained:
Type in all cases: cell-based, human
MOLM-13 = experiment: Proliferation inhibition, CellTiter-Glo, MOLM-13; conditions: Homo sapiens, 96 h; MOLM-13 cells, IC50 (4 days), CellTiter-Glo; read-out: MOLM-13 IC50
Source text: (§1) The proliferation inhibitory effect was investigated in human AML cell lines MOLM-13 (AddexBio: C0003003) and MV-4-11 (ATCC: CRL-9591), and CML cell line […] (ATCC: CRL-3343). Molm-13 is heterozygous for FLT3-ITD mutation, while MV4-11 is homozygous for FLT3-ITD (Quentmeier H, et al., Leukemia. 17(1):120-4). […] Cells were maintained in RPMI-1640 medium (ThermoFisher catalog no. 61870036) supplemented with 10% of Heat Inactivated FBS (ThermoFisher catalog no. A31605) and 1% Pen-Strep (ThermoFisher catalog no. 10378016) and cultured at 37° C. in a humidified incubator with 5% CO2. Cell lines were grown by […], and the cells were maintained in a range 70%-80% confluency.
(§2) ATP is present in all metabolically active cells and is considered as a marker for cell viability and proliferation. Metabolic cell activity was determined using the CellTiter-Glo kit (Promega catalog no. G7572), an ATP monitoring system based on the production of luminescence by the reaction of ATP with added UltraGlo® recombinant luciferase (Kawano et al., 2016, PLOS One, 8; 11(7):e0158888), according to the supplier's experimental recommendations. The assay was based on a 96 well plate format.
(§3) Test compounds were dissolved at 10 mM in DMSO (Sigma catalog no. D8418; purity≥99.9%) and stored at −20° C. Eight concentrations of test compound were assessed in duplicate in an individual test occasion in parallel in the selected cell lines. Gilteratinib and FF-10101 were used as reference compounds and tested in duplicate at eight concentrations. 100% of proliferation is represented by the untreated cells (0.2% DMSO).
(§4) On the day of the experiment, cells were quantified with the cell viability analyzer NucleoCounter (Chemometec NC-200) and diluted with fresh medium to obtain the cell density of about 10,000 cells per 200 μL medium. 200 μL of cell suspension were added into wells in the 96 well plate.
(§5) After 2 hours from seeding cells, compounds at desired concentrations were added using a D300e compound dispenser (Life Sciences Tecan D300) with shaking between each compound dispensed. Assay plates were incubated at 37° C. in a humidified incubator with 5% CO2.
(§6) On day 4 (˜96 hrs after compound addition) assay plates were equilibrated at room temperature for approximately 15 min, and then 40 μL/well of the Promega CellTiterGlo® reagent was added. Contents were mixed for 5 min on an orbital shaker to promote cell lysis, and then incubated at room temperature for an additional 10 min in the dark to stabilize the luminescent signal. Luminescence was read by using a GloMlax GM300 plate reader (Promega) using the luminescence for 96 well plate standard protocol.
(§7) Results were analyzed by GraphPad (Prism) and IC50 values were calculated by non-linear regression using four parameter-logistic equation.

MV-4-11 = experiment: Proliferation inhibition, CellTiter-Glo, MV-4-11; conditions: Homo sapiens, MV4-11, 96 h; MV-4:11 cells, IC50 (4 days), CellTiter-Glo; read-out: MV-4:11 IC50
Source text: as §1, §2, §3, §4, §5, §6, §7

K-562 = experiment: Proliferation inhibition, CellTiter-Glo, K-562; conditions: Homo sapiens, K562, 96 h; K-562 cells, IC50 (4 days), CellTiter-Glo; read-out: K-562 IC50
Source text: as §1, §2, §3, §4, §5, §6, §7

Structure (SMILES)	IC50 (MOLM-13)	IC50 (MV-4-11)	IC50 (K-562)
CCc1nc(C(N)=O)c(Nc2cccc(CCNC(=O)C3(N(C)C(=O)/C=C/CN(C)C)CC3)c2)nc1C [Compound 223, 3-[3-[2-[[1-[[(E)-4-(dimethylamino)but-2-enoyl]-methyl-amino]cyclopropanecarbonyl]amino]ethyl]anilino]-6-ethyl-5-methyl-pyrazine-2-carboxamide]	0.01 to 0.1 µM	0.001 to 0.01 µM	> 0.5 µM
C=CC(=O)N(C)[C@@H](C)C(=O)NCCc1cccc(Nc2nc(N(C)CC)c(C)nc2C(N)=O)c1 [Compound 225, 5-[ethyl(methyl)amino]-6-methyl-3-[3-[2-[[(2S)-2-[methyl(prop-2-enoyl)amino]propanoyl]amino]ethyl]anilino]pyrazine-2-carboxamide]	0.01 to 0.1 µM	0.001 to 0.01 µM	> 0.5 µM
C=CC(=O)N(C)[C@@H](C)C(=O)NCCc1cccc(Nc2nc(N(C)C(C)C)c(C)nc2C(N)=O)c1 [Compound 231, 5-[isopropyl(methyl)amino]-6-methyl-3-[3-[2-[[(2S)-2-[methyl(prop-2-enoyl)amino]propanoyl]amino]ethyl]anilino]pyrazine-2-carboxamide]	0.01 to 0.1 µM	0.001 to 0.01 µM	> 0.5 µM
CCc1nc(C(N)=O)c(Nc2cccc(CCNC(=O)[C@@H](C)N(C)C(=O)/C=C/CN(C)C)c2)nc1C [Compound 234, 3-[3-[2-[[(2R)-2-[[(E)-4-(dimethylamino)but-2-enoyl]-methyl-amino]propanoyl]amino]ethyl]anilino]-6-ethyl-5-methyl-pyrazine-2-carboxamide]	> 0.5 µM	0.01 to 0.1 µM	> 0.5 µM
C=CC(=O)N(C)[C@H](C)C(=O)NCCc1cccc(Nc2nc(C3CC3)c(CC)nc2C(N)=O)c1 [Compound 236, 5-cyclopropyl-6-ethyl-3-[3-[2-[[(2R)-2-[methyl(prop-2-enoyl)amino]propanoyl]amino]ethyl]anilino]pyrazine-2-carboxamide]	0.01 to 0.1 µM	0.01 to 0.1 µM	> 0.5 µM
[2H]C([2H])([2H])N(C(=O)C=C)[C@@H](C)C(=O)NCCc1cccc(Nc2nc(C3CC3)c(CC)nc2C(N)=O)c1 [Compound 237, 5-cyclopropyl-6-ethyl-3-[3-[2-[[(2S)-2-[prop-2-enoyl(trideuteriomethyl)amino]propanoyl]amino]ethyl]anilino]pyrazine-2-carboxamide]	0.01 to 0.1 µM	0.001 to 0.01 µM	> 0.5 µM
C=CC(=O)N(C)[C@@H](C)C(=O)NCCc1cccc(Nc2nc(C)c(C)nc2C(N)=O)c1 [Compound 238, 5,6-dimethyl-3-[3-[2-[[(2S)-2-[methyl(prop-2-enoyl)amino]propanoyl]amino]ethyl]anilino]pyrazine-2-carboxamide]	> 0.5 µM	> 0.5 µM	> 0.5 µM
CCc1nc(C(N)=O)c(Nc2cccc(CCNC(=O)[C@H](C)N(C)C(=O)/C=C/CN3CC(F)C3)c2)nc1C [Compound 240, 6-ethyl-3-[3-[2-[[(2S)-2-[[(E)-4-(3-fluoroazetidin-1-yl)but-2-enoyl]-methyl-amino]propanoyl]amino]ethyl]anilino]-5-methyl-pyrazine-2-carboxamide]	> 0.5 µM	0.01 to 0.1 µM	> 0.5 µM
Cc1nc(Nc2cc(F)cc(CCNC(=O)[C@H](C)N(C)C(=O)/C=C/CN(C)C)c2)c(C(N)=O)nc1C [Compound 245, 3-[3-[2-[[(2S)-2-[[(E)-4-(dimethylamino)but-2-enoyl]-methyl-amino]propanoyl]amino]ethyl]-5-fluoro-anilino]-5,6-dimethyl-pyrazine-2-carboxamide]	0.01 to 0.1 µM	0.001 to 0.01 µM	> 0.5 µM

More lines, now with the values ahead:

IC50 (MOLM-13)	IC50 (MV-4-11)	IC50 (K-562)	Structure (SMILES)
0.01 to 0.1 µM	0.01 to 0.1 µM	> 0.5 µM	C=CC(=O)N(C)[C@@H](C)C(=O)NCCc1cccc(Nc2nc(C3CC3)c(C)nc2C(N)=O)c1 [Compound 222, 5-cyclopropyl-6-methyl-3-[3-[2-[[(2S)-2-[methyl(prop-2-enoyl)amino]propanoyl]amino]ethyl]anilino]pyrazine-2-carboxamide]
0.001 to 0.01 µM	< 0.001 µM	> 0.5 µM	CCc1nc(C(N)=O)c(Nc2cccc(CCNC(=O)[C@H](C)N(C)C(=O)/C=C/CNC)c2)nc1C1CC1 [Compound 224, (S,E)-5-cyclopropyl-6-ethyl-3-((3-(2-(2-(N-methyl-4-(methylamino)but-2-enamido)propanamido)ethyl)phenyl)amino)pyrazine-2-carboxamide]
0.001 to 0.01 µM	< 0.001 µM	> 0.5 µM	CCc1nc(C(N)=O)c(Nc2cccc(CCNC(=O)CN(C)C(=O)/C=C/CN(C)C)c2)nc1C [Compound 226, (E)-3-((3-(2-(2-(4-(dimethylamino)-N-methylbut-2-enamido)acetamido)ethyl)phenyl)amino)-6-ethyl-5-methylpyrazine-2-carboxamide]
0.001 to 0.01 µM	0.001 to 0.01 µM	> 0.5 µM	CCc1nc(C(N)=O)c(Nc2cccc(CCNC(=O)[C@H](C)N(C)C(=O)/C=C/CNC)c2)nc1C [Compound 227, (S,E)-6-ethyl-5-methyl-3-((3-(2-(2-(N-methyl-4-(methylamino)but-2-enamido)propanamido)ethyl)phenyl)amino)pyrazine-2-carboxamide]
0.001 to 0.01 µM	0.001 to 0.01 µM	> 0.5 µM	Cc1nc(C(N)=O)c(Nc2cccc(CCNC(=O)[C@H](C)N(C)C(=O)/C=C/CN(C)C)c2)nc1C1CC1 [Compound 228, (S,E)-5-cyclopropyl-3-((3-(2-(2-(4-(dimethylamino)-N-methylbut-2-enamido)propanamido)ethyl)phenyl)amino)-6-methylpyrazine-2-carboxamide]
0.001 to 0.01 µM	< 0.001 µM	> 0.5 µM	Cc1nc(C(N)=O)c(Nc2cccc(CCNC(=O)[C@H](C)N(C)C(=O)/C=C/CN3CCC3)c2)nc1N(C)C [Compound 230, (S,E)-3-((3-(2-(2-(4-(azetidin-1-yl)-N-methylbut-2-enamido)propanamido)ethyl)phenyl)amino)-5-(dimethylamino)-6-methylpyrazine-2-carboxamide]
0.001 to 0.01 µM	< 0.001 µM	> 0.5 µM	Cc1nc(C(N)=O)c(Nc2cccc(CCNC(=O)[C@H](C)N(C)C(=O)/C=C/CN(C)C)c2)nc1N(C)C [Compound 233, (S,E)-5-(dimethylamino)-3-((3-(2-(2-(4-(dimethylamino)-N-methylbut-2-enamido)propanamido)ethyl)phenyl)amino)-6-methylpyrazine-2-carboxamide]
0.001 to 0.01 µM	0.001 to 0.01 µM	> 0.5 µM	Cc1nc(C(N)=O)c(Nc2cccc(CCNC(=O)[C@H](C)N(C)C(=O)/C=C/CN3CCC3)c2)nc1C1CC1 [Compound 242, (S,E)-3-((3-(2-(2-(4-(azetidin-1-yl)-N-methylbut-2-enamido)propanamido)ethyl)phenyl)amino)-5-cyclopropyl-6-methylpyrazine-2-carboxamide]
0.001 to 0.01 µM	< 0.001 µM	> 0.5 µM	CCc1nc(Nc2cccc(CCNC(=O)[C@H](C)N(C)C(=O)/C=C/CN(C)C)c2)c(C(N)=O)nc1CC [Compound 243, (S,E)-3-((3-(2-(2-(4-(dimethylamino)-N-methylbut-2-enamido)propanamido)ethyl)phenyl)amino)-5,6-diethylpyrazine-2-carboxamide]
0.001 to 0.01 µM	< 0.001 µM	> 0.5 µM	CCc1nc(C(N)=O)c(Nc2cccc(CCNC(=O)[C@H](C)N(C)C(=O)C#CCN(C)C)c2)nc1C [Compound 244, (S)-3-((3-(2-(2-(4-(dimethylamino)-N-methylbut-2-ynamido)propanamido)ethyl)phenyl)amino)-6-ethyl-5-methylpyrazine-2-carboxamide]
